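Five concentrations, 48 hours, 96-well plates. The concentration for 50% growth inhibition is given as GI50.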 Active and inactive are the calls of the source. No stated cut-off is given here; in the data, active = GI50 up to about 1.1 µM and inactive = higher.
Key:
Experiment in all cases: NCI anticancer screen, dose series, 48 h
[1] = system: T47D
[2] = system: A549
[3] = system: MCF7
[4] = system: UACC-257
[5] = system: MOLT-4
[6] = system: OVCAR-3
[7] = system: DU-145
[8] = system: UO-31
[9] = system: SNB-75
[10] = system: UACC-62
[11] = system: PC-3
[12] = system: Malme-3M
[13] = system: 786-0
[14] = system: K562
[15] = system: SK-MEL-5
[16] = system: HT-29
[17] = system: ACHN
[18] = system: CCRF-CEM
[19] = system: TK-10
[20] = system: NCI-H460

Measured: GI50

CNC(=O)OCc1nc(SC)n(C)c1COC(=O)NC
inactive: [1] 171 µM | [2] 242 µM | [3] 132 µM | [4] 103 µM | [5] 26.4 µM | [6] 187 µM | [7] > 81.3 µM | [8] 185 µM | [9] 167 µM | [10] 60.1 µM | [11] 171 µM | [12] 113 µM | [13] 139 µM | [14] 147 µM | [15] 153 µM | [16] 205 µM | [17] 64.1 µM | [18] 44.8 µM | [19] 177 µM | [20] 59.6 µM

— ChEMBL document CHEMBL1201862, “PubChem BioAssay data set” (2004)
